Source: US20230174507A1, “IMIDAZOLE 3-OXIDE DERIVATIVE BASED ACSS2 INHIBITORS AND METHODS OF USE THEREOF” (METABOMED LTD., priority 2020, published 2023)
pIC50: −log10 of the molar value.

Experiments:
human ACSS2 protein = target: T1, human ACSS2 protein (Homo sapiens, UniProt Q9NR19); test: ACSS2 cell-free activity assay (pyrophosphatase-coupled, Biomol green); details: 10 nM human ACSS2, 90 minutes at 37 C, absorbance at 620 nm; read-out: ACSS2 Biochemical IC50
T1 construct: purchased OriGene Technologies, Inc
T1 sequence (Q9NR19 whole entry): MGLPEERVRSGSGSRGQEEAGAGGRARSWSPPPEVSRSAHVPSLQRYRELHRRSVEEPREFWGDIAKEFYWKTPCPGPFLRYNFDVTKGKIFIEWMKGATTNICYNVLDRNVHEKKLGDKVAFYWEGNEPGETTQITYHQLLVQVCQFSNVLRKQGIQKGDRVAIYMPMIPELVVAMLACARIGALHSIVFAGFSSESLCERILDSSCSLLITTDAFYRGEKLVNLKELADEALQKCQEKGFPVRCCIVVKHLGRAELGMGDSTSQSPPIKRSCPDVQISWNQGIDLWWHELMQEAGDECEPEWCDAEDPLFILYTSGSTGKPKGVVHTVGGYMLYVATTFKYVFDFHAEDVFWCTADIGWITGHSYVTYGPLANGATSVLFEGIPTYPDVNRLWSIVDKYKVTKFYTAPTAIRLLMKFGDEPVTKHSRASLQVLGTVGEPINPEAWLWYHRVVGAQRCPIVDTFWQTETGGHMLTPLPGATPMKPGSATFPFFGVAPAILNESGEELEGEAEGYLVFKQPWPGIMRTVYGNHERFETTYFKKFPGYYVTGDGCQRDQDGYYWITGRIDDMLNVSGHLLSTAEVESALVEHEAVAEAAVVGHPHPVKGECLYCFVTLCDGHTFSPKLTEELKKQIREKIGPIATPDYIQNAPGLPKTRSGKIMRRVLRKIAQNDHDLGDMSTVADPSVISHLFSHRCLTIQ
Description: ACSS2 Cell-Free Activity Assay (Cell-Free IC50)
(§1) The assay is based on a coupling reaction with Pyrophosphatase: ACSS2 is converting ATP+CoA+Acetate=>AMP+pyrophosphate+Acetyl-CoA (Ac-CoA). Pyrophosphatase converts pyrophosphate, a product of the ACSS2 reaction, to phosphate which can be detected by measuring the absorbance at 620 nm after incubation with the Biomol green reagent (Enzo life Science, BML-AK111).
(§2) Cell Free IC50 Determination:
(§3) 10 nM of human ACSS2 protein (OriGene Technologies, Inc) was incubated for 90 minutes at 37 C with various compounds' concentrations in a reaction containing 50 mM Hepes pH 7.5, 10 mM DTT, 90 mM KCl, 0.006% Tween-20, 0.1 mg/ml BSA, 2 mM MgCl2, 10 μM CoA, 5 mM NaAc, 300 μM ATP and 0.5 U/ml Pyrophosphatase (Sigma). At the end of the reaction, Biomol Green was added for 30 minutes at RT and the activity was measured by reading the absorbance at 620 nm. IC50 values were calculated using non-linear regression curve fit with 0% and 100% constrains (CDD Vault, Collaborative Drug Discovery, Inc.).

human ACSS1 protein = target: T2, human ACSS1 protein (Homo sapiens, UniProt Q9NUB1); test: ACSS1 cell-free activity assay (pyrophosphatase-coupled, Biomol green); format: biochemical; details: 5 nM human ACSS1, 30 minutes at room temperature, absorbance at 620 nm
T2 construct: purchased MyBioSource
T2 sequence (Q9NUB1 38-689): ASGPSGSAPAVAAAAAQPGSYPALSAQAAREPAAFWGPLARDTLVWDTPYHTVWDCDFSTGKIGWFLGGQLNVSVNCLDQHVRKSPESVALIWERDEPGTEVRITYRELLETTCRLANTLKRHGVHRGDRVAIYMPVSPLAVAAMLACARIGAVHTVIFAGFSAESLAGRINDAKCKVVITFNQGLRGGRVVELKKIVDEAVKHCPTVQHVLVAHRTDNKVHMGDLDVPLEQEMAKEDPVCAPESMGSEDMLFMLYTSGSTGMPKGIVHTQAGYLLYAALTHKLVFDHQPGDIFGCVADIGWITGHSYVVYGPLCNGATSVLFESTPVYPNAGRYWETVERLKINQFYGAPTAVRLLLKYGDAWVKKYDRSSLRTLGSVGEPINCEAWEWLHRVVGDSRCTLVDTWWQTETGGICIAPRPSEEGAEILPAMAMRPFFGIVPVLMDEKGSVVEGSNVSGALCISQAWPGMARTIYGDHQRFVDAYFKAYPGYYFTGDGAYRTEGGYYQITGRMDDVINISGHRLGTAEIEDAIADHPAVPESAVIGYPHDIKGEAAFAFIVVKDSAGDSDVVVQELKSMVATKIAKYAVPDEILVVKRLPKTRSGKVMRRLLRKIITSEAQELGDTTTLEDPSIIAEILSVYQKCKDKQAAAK
Description: ACSS1 Cell-Free Activity Assay (Cell-Free IC50)
as §1, with “ACSS1” for “ACSS2”
as §2
as §3, with “5 nM” for “10 nM”, “human ACSS1” for “human ACSS2”, “protein (MyBioSource)” for “protein (OriGene Technologies, Inc)”, “for 30” for “for 90”, “at room temperature” for “at 37 C”, “MgCl2, 15” for “MgCl2, 10”

Structure (SMILES): COc1ccc(-c2[nH]c(C)c(C(=O)Nc3cccc(CC(F)(F)F)c3)[n+]2[O-])cc1-c1c(C)cccc1C [Compound 194, 2-(6-methoxy-2′,6′-dimethyl-[1,1′-biphenyl]-3-yl)-5-methyl-4-((3-(2,2,2-trifluoroethyl)phenyl)carbamoyl)-1H-imidazole 3-oxide]
- pIC50 (human ACSS2 protein): 7.52 to 9.00
- ACSS1 Biochemical IC50 (nM) (human ACSS1 protein): Inactive

Structure (SMILES): CCC(F)(F)c1cccc(NC(=O)c2c(C)n(COP(=O)(O)O)c(-c3ccc(OC)c(-c4c(C)cccc4C)c3)[n+]2[O-])c1 [Compound 193, 4-((3-(1,1-difluoropropyl)phenyl)carbamoyl)-2-(6-methoxy-2′,6′-dimethyl-[1,1′-biphenyl]-3-yl)-5-methyl-1-((phosphonooxy)methyl)-1H-imidazole 3-oxide]
- pIC50 (human ACSS2 protein): < 7.52
- ACSS1 Biochemical IC50 (nM) (human ACSS1 protein): Inactive

Structure (SMILES): Cc1cccc(C)c1-c1cc(-c2[nH]c(C)c(C(=O)Nc3cccc(C(F)(F)C4CC4)c3)[n+]2[O-])cc(C(C)C)c1 [Compound 134, 4-((3-(cyclopropyldifluoromethyl)phenyl)carbamoyl)-2-(5-isopropyl-2′,6′-dimethyl-[1,1′-biphenyl]-3-yl)-5-methyl-1H-imidazole 3-oxide]
- pIC50 (human ACSS2 protein): 7.52 to 9.00
- ACSS1 Biochemical IC50 (nM) (human ACSS1 protein): Inactive

Structure (SMILES): C/C=C\c1cc(C)c(-c2cc(-c3[nH]c(C)c(C(=O)Nc4cccc(C(F)(F)CC)c4)[n+]3[O-])ccc2OC)c(C)c1 [Compound 160, (Z)-4-((3-(1,1-difluoropropyl)phenyl)carbamoyl)-2-(6-methoxy-2′,6′-dimethyl-4′-(prop-1-en-1-yl)-[1,1′-biphenyl]-3-yl)-5-methyl-1H-imidazole 3-oxide]
- pIC50 (human ACSS2 protein): 7.52 to 9.00
- ACSS1 Biochemical IC50 (nM) (human ACSS1 protein): Inactive

Structure (SMILES): CCC(F)(F)c1cccc(NC(=O)c2c(C)[nH]c(-c3ccc(OC)c(N4CCOCC4)c3)[n+]2[O-])c1 [Compound 150, 4-((3-(1,1-difluoropropyl)phenyl)carbamoyl)-2-(4-methoxy-3-morpholinophenyl)-5-methyl-1H-imidazole 3-oxide]
- pIC50 (human ACSS2 protein): 7.52 to 9.00
- ACSS1 Biochemical IC50 (nM) (human ACSS1 protein): Inactive

Structure (SMILES): COc1ccc(-c2[nH]c(C)c(C(=O)Nc3cccc(C(=O)N4CCOCC4)c3)[n+]2[O-])cc1-c1c(C)cccc1C [Compound 148, 2-(6-methoxy-2′,6′-dimethyl-[1,1′-biphenyl]-3-yl)-5-methyl-4-((3-(morpholine-4-carbonyl)phenyl)carbamoyl)-1H-imidazole 3-oxide]
- pIC50 (human ACSS2 protein): < 7.52
- ACSS1 Biochemical IC50 (nM) (human ACSS1 protein): Inactive

Structure (SMILES): CCC(F)(F)c1cccc(NC(=O)c2c(C)[nH]c(-c3ccc(OC)c(-c4ncccn4)c3C)[n+]2[O-])c1 [Compound 118, 4-((3-(1,1-difluoropropyl)phenyl)carbamoyl)-2-(4-methoxy-2-methyl-3-(pyrimidin-2-yl)phenyl)-5-methyl-1H-imidazole 3-oxide]
- pIC50 (human ACSS2 protein): < 7.52
- ACSS1 Biochemical IC50 (nM) (human ACSS1 protein): Inactive

Structure (SMILES): CCC(F)(F)c1cccc(NC(=O)c2c(C)[nH]c(-c3ccc(OC)c(-c4cccnn4)c3C)[n+]2[O-])c1 [Compound 122, 4-((3-(1,1-difluoropropyl)phenyl)carbamoyl)-2-(4-methoxy-2-methyl-3-(pyridazin-3-yl)phenyl)-5-methyl-1H-imidazole 3-oxide]
- pIC50 (human ACSS2 protein): < 7.52
- ACSS1 Biochemical IC50 (nM) (human ACSS1 protein): Inactive

Structure (SMILES): CCC(F)(F)c1cccc(NC(=O)c2c(C)[nH]c(-c3ccc(OC)c(-c4c(C)cc(C)cc4C)c3)[n+]2[O-])c1 [Compound 152, 4-((3-(1,1-difluoropropyl)phenyl)carbamoyl)-2-(6-methoxy-2′,4′,6′-trimethyl-[1,1′-biphenyl]-3-yl)-5-methyl-1H-imidazole 3-oxide]
- pIC50 (human ACSS2 protein): 7.52 to 9.00
- ACSS1 Biochemical IC50 (nM) (human ACSS1 protein): Inactive

Structure (SMILES): CCC(F)(F)c1cccc(NC(=O)c2c(C)[nH]c(-c3ccc(OC)c(-c4c(C)cc(CCc5ccccc5)cc4C)c3)[n+]2[O-])c1 [Compound 154, 4-((3-(1,1-difluoropropyl)phenyl)carbamoyl)-2-(6-methoxy-2′,6′-dimethyl-4′-phenethyl-[1,1′-biphenyl]-3-yl)-5-methyl-1H-imidazole 3-oxide]
- pIC50 (human ACSS2 protein): < 7.52
- ACSS1 Biochemical IC50 (nM) (human ACSS1 protein): Inactive

Structure (SMILES): CCCCc1cc(-c2c(C)cccc2C)cc(-c2[nH]c(C)c(C(=O)Nc3cccc(C(F)(F)C4CC4)c3)[n+]2[O-])c1 [Compound 161, 2-(5-butyl-2′,6′-dimethyl-[1,1′-biphenyl]-3-yl)-4-((3-(cyclopropyldifluoromethyl)phenyl)carbamoyl)-5-methyl-1H-imidazole 3-oxide]
- pIC50 (human ACSS2 protein): > 9.00
- ACSS1 Biochemical IC50 (nM) (human ACSS1 protein): Inactive

Structure (SMILES): COc1ccc(-c2[nH]c(C)c(C(=O)Nc3cccc(C(=O)N4CCCC4)c3)[n+]2[O-])cc1-c1c(C)cccc1C [Compound 138, 2-[3-(2,6-dimethylphenyl)-4-methoxy-phenyl]-5-methyl-3-oxido-N-[3-(pyrrolidine-1-carbonyl)phenyl]-1H-imidazol-3-ium-4-carboxamide]
- pIC50 (human ACSS2 protein): < 7.52
- ACSS1 Biochemical IC50 (nM) (human ACSS1 protein): Inactive

Structure (SMILES): CCC(F)(F)c1cccc(NC(=O)c2c(C)[nH]c(-c3ccc(OC)c(N4CCN(C)CC4)c3)[n+]2[O-])c1 [Compound 165, 4-((3-(1,1-difluoropropyl)phenyl)carbamoyl)-2-(4-methoxy-3-(4-methylpiperazin-1-yl)phenyl)-5-methyl-1H-imidazole 3-oxide]
- pIC50 (human ACSS2 protein): > 9.00
- ACSS1 Biochemical IC50 (nM) (human ACSS1 protein): Inactive

Structure (SMILES): CC#Cc1cc(C)c(-c2cc(-c3[nH]c(C)c(C(=O)Nc4cccc(C(F)(F)CC)c4)[n+]3[O-])ccc2OC)c(C)c1 [Compound 156, 4-((3-(1,1-difluoropropyl)phenyl)carbamoyl)-2-(6-methoxy-2′,6′-dimethyl-4′-(prop-1-yn-1-yl)-[1,1′-biphenyl]-3-yl)-5-methyl-1H-imidazole 3-oxide]
- pIC50 (human ACSS2 protein): 7.52 to 9.00
- ACSS1 Biochemical IC50 (nM) (human ACSS1 protein): Inactive

Structure (SMILES): CCC(F)(F)c1cccc(NC(=O)c2c(C)[nH]c(-c3cc(C)cc(-c4c(C)cccc4C)c3)[n+]2[O-])c1 [Compound 130, 4-((3-(1,1-difluoropropyl)phenyl)carbamoyl)-5-methyl-2-(2′,5,6′-trimethyl-[1,1′-biphenyl]-3-yl)-1H-imidazole 3-oxide]
- pIC50 (human ACSS2 protein): 7.52 to 9.00

Structure (SMILES): Cc1cccc(C)c1-c1cc(Br)cc(-c2[nH]c(C)c(C(=O)Nc3cccc(C(F)(F)C4CC4)c3)[n+]2[O-])c1 [Compound 136, 2-[3-bromo-5-(2,6-dimethylphenyl)phenyl]-N-[3-[cyclopropyl(difluoro)methyl]phenyl]-5-methyl-3-oxido-1H-imidazol-3-ium-4-carboxamide]
- pIC50 (human ACSS2 protein): 7.52 to 9.00
- ACSS1 Biochemical IC50 (nM) (human ACSS1 protein): Inactive

Structure (SMILES): CCN(C)C(=O)c1cccc(NC(=O)c2c(C)[nH]c(-c3ccc(OC)c(-c4c(C)cccc4C)c3)[n+]2[O-])c1 [Compound 140, 4-((3-(ethyl(methyl)carbamoyl)phenyl)carbamoyl)-2-(6-methoxy-2′,6′-dimethyl-[1,1′-biphenyl]-3-yl)-5-methyl-1H-imidazole 3-oxide]
- pIC50 (human ACSS2 protein): 7.52 to 9.00
- ACSS1 Biochemical IC50 (nM) (human ACSS1 protein): Inactive

Structure (SMILES): CCC(F)(F)c1cccc(NC(=O)c2c(C)[nH]c(-c3ccc(C(C)C)c(-c4c(C)cccc4C)c3)[n+]2[O-])c1 [Compound 117, 4-((3-(1,1-difluoropropyl)phenyl)carbamoyl)-2-(6-isopropyl-2′,6′-dimethyl-[1,1′-biphenyl]-3-yl)-5-methyl-1H-imidazole 3-oxide]
- pIC50 (human ACSS2 protein): 7.52 to 9.00
- ACSS1 Biochemical IC50 (nM) (human ACSS1 protein): Inactive
